In brackets after ≈: the same amount, converted by molar mass. Read-outs that look alike come from different tables or passages of the source.
Columns and labels:
[1] = system: S. pneumoniae (SPNE 9912); experiment: MIC, standard agar dilution method; type: cell-based; conditions: Table II, Mueller Hinton agar, incubated overnight at 35° C.; for MIC: Streptococcus pneumoniae, read-out: SPNE 9912 MIC
Method: (§1) MIC Test Method The in vitro MICs of test compounds were determined by a standard agar dilution method. […] Serial 2-fold dilutions of each sample are made using 1.0 ml aliquots of sterile distilled water. To each 1.0 ml aliquot of drug is added 9 ml of molten Mueller Hinton agar medium. The drug-supplemented agar is mixed, poured into 15×100 mm petri dishes, and allowed to solidify and dry prior to inoculation. Vials of each of the test organisms are maintained frozen in the vapor phase of a liquid nitrogen freezer. Test cultures are grown overnight at 35° C. on the medium appropriate for the organism. Colonies are harvested with a sterile swab, and cell suspensions are prepared in Trypticase Soy broth (TSB) to equal the turbidity of a 0.5 McFarland standard. A 1:20 dilution of each suspension is made in TSB. […] The plates are incubated overnight at 35° C. Following incubation the Minimum Inhibitory Concentration (MIC μg/ml), the lowest concentration of drug that inhibits visible growth of the organism, is read and recorded.

[2] = system: Moraxella catarrhalis (MCAT 30610); experiment: MIC, standard agar dilution method; type: cell-based; conditions: Table II, Mueller Hinton agar, incubated overnight at 35° C.; for MIC: Moraxella catarrhalis
Method: as §1

[3] = system: Haemophilus influenzae (HINF 30063); experiment: MIC, standard agar dilution method; type: cell-based; conditions: Table II, Mueller Hinton agar, incubated overnight at 35° C.; for MIC: Haemophilus influenzae
Method: as §1

[4] = system: S. epidermidis (SEPI 30593); experiment: MIC, standard agar dilution method; type: cell-based; conditions: Table II, Mueller Hinton agar, incubated overnight at 35° C.; for MIC: Staphylococcus epidermidis
Method: as §1

[5] = system: Enterococcus faecalis (EFAE 9217); experiment: MIC, standard agar dilution method; type: cell-based; conditions: Table II, key: Enterococcus faecalis, Mueller Hinton agar, incubated overnight at 35° C.; for MIC: read-out: EFAE 9217 MIC
Method: as §1

S. pyogenes (SPYO 152) = experiment: MIC, standard agar dilution method; type: cell-based; conditions: Table II, Mueller Hinton agar, incubated overnight at 35° C.; for MIC: Streptococcus pyogenes, read-out: SPYO 152 MIC
Method: as §1

E. Faecium (EFAE 12712) = experiment: MIC, standard agar dilution method; type: cell-based; conditions: for MIC: Enterococcus faecium, read-out: EFAE 12712 MIC
Method: as §1

S. aureus (SAUR 9213) = experiment: MIC, standard agar dilution method; type: cell-based; conditions: Table II, Mueller Hinton agar, incubated overnight at 35° C.; for MIC: Staphylococcus aureus, read-out: SAUR 9213 MIC
Method: as §1

[6] = Table II, key: E. Faecium, agar dilution, Mueller Hinton agar, incubated overnight at 35° C.

| Structure (SMILES) | melting point | MIC [1] [µg/mL] | MIC [2] [µg/mL] | MIC [3] [µg/mL] | MIC [4] [µg/mL] | MIC [5] [µg/mL] | MIC (S. pyogenes (SPYO 152)) [µg/mL] | MIC (E. Faecium (EFAE 12712); [6]) [µg/mL] | MIC (S. aureus (SAUR 9213)) [µg/mL] | SPNE 9912 MIC [1] [µg/mL] | MCAT 30610 MIC [2] [µg/mL] | HINF 30063 MIC [3] [µg/mL] | SEPI 30593 MIC [4] [µg/mL] | EFAE 9217 MIC [5] [µg/mL] | SPYO 152 MIC (S. pyogenes (SPYO 152)) [µg/mL] | EFAE 12712 MIC (E. Faecium (EFAE 12712); [6]) [µg/mL] | SAUR 9213 MIC (S. aureus (SAUR 9213)) [µg/mL] | MIC (E. Faecium (EFAE 12712)) [µg/mL] |
| --- | --- | --- | --- | --- | --- | --- | --- | --- | --- | --- | --- | --- | --- | --- | --- | --- | --- | --- |
| CC(=S)NC[C@H]1CN(c2ccc(N3CCN(C(=O)CO)CC3)c(F)c2)C(=O)O1 [Example 25, (S)-N-[[3-[3-Fluoro-4-[4-(hydroxyacetyl)-1-piperazinyl]phenyl]-2-oxo-5-oxazolidinyl]methyl]thioacetamide] | 163 to 165 °C | < 0.125 | 2 (≈ 4.87 µM) | 2 (≈ 4.87 µM) | 0.25 (≈ 0.609 µM) | 0.5 (≈ 1.22 µM) | < 0.125 | 0.5 (≈ 1.22 µM) | 0.5 (≈ 1.22 µM) |  |  |  |  |  |  |  |  |  |
| CC(=S)NC[C@H]1CN(c2ccc(C3CCS(=O)(=O)CC3)c(F)c2)C(=O)O1 [Example 11, (S)-N-[[3-[3-Fluoro-4-(tetrahydro-1,1-dioxido-2H-thiopyran-4-yl)phenyl]-2-oxo-5-oxazolidinyl]methyl]ethanethioamide] |  | < 0.125 | 1 (≈ 2.5 µM) | 2 (≈ 4.99 µM) | 0.25 (≈ 0.624 µM) | 0.25 (≈ 0.624 µM) | 0.25 (≈ 0.624 µM) | 0.25 (≈ 0.624 µM) | 0.25 (≈ 0.624 µM) |  |  |  |  |  |  |  |  |  |
| NC(=S)NC[C@H]1CN(c2ccc(-n3cncn3)c(F)c2)C(=O)O1 [Example 30] | 214 to 215 °C | < 0.125 | 2 (≈ 5.95 µM) | 8 (≈ 23.8 µM) | 1 (≈ 2.97 µM) | 1 (≈ 2.97 µM) | 0.25 (≈ 0.743 µM) | 0.5 (≈ 1.49 µM) | 4 (≈ 11.9 µM) |  |  |  |  |  |  |  |  |  |
| COC(=S)NC[C@H]1CN(c2ccc(N3CCOCC3)c(F)c2)C(=O)O1 [Example 35] |  |  |  |  |  |  |  |  |  | 0.25 | 2 | 16 | 0.5 | 1 | 0.5 | 1 | 1 |  |
| NC(=S)NC[C@H]1CN(c2ccc(C3CC[S+]([O-])CC3)c(F)c2)C(=O)O1 (stereo partly drawn) [Example 10, (S)-trans-[[3-[3-Fluoro-4-(tetrahydro-1-oxido-2H-thiopyran4-yl)phenyl]-2-oxo-5-oxazolidinyl]methyl]thiourea] |  | < 0.125 | 1 (≈ 2.59 µM) | 2 (≈ 5.19 µM) | 1 (≈ 2.59 µM) | 1 (≈ 2.59 µM) | 0.25 (≈ 0.649 µM) | 0.5 (≈ 1.3 µM) | 2 (≈ 5.19 µM) |  |  |  |  |  |  |  |  |  |
| CC(=S)NC[C@H]1CN(c2ccc(-n3cncn3)c(F)c2)C(=O)O1 [Example 22] |  | < 0.125 | 2 (≈ 5.96 µM) | 4 (≈ 11.9 µM) | 0.5 (≈ 1.49 µM) | 1 (≈ 2.98 µM) | 0.25 (≈ 0.745 µM) | 1 (≈ 2.98 µM) | 0.5 (≈ 1.49 µM) |  |  |  |  |  |  |  |  |  |
| NC(=S)NC[C@H]1CN(c2ccc(C3CCS(=O)(=O)CC3)c(F)c2)C(=O)O1 [Example 12, (S)-N-[[3-[3-Fluoro-4-(tetrahydro-1,1-dioxido-2H-thiopyran-4-yl)phenyl]-2-oxo-5-oxazolidinyl]methyl]thiourea] |  | < 0.125 | 0.5 (≈ 1.25 µM) | 1 (≈ 2.49 µM) | 0.5 (≈ 1.25 µM) | 0.5 (≈ 1.25 µM) | < 0.125 | 0.25 (≈ 0.623 µM) | 1 (≈ 2.49 µM) |  |  |  |  |  |  |  |  |  |
| CC(=S)NC[C@H]1CN(c2ccc([C@H]3CC[S@+]([O-])CC3)c(F)c2)C(=O)O1 [Example 9, (S)-trans-N-[[3-[3-Fluoro-4-(tetrahydro-1-oxido-2H-thiopyran-4-yl)phenyl]-2-oxo-5-oxazolidinyl]methyl]ethanethioamide] |  | < 0.125 | 0.5 (≈ 1.3 µM) | 2 (≈ 5.2 µM) | 0.25 (≈ 0.65 µM) | 0.25 (≈ 0.65 µM) | < 0.125 | 0.25 (≈ 0.65 µM) | 0.5 (≈ 1.3 µM) |  |  |  |  |  |  |  |  |  |
| NC(=S)NC[C@H]1CN(c2ccc([C@H]3CC[S@@+]([O-])CC3)c(F)c2)C(=O)O1 [Example 8, (S)-cis-[[3-[3-Fluoro-4-(tetrahydro-1-oxido-2H-thiopyran-4-yl)phenyl]-2-oxo-5-oxazolidinyl]methyl]thiourea] |  | < 0.125 | 2 (≈ 5.19 µM) | 4 (≈ 10.4 µM) | 1 (≈ 2.59 µM) | 1 (≈ 2.59 µM) | 0.25 (≈ 0.649 µM) | 0.5 (≈ 1.3 µM) | 2 (≈ 5.19 µM) |  |  |  |  |  |  |  |  |  |
| CC(=S)NC[C@H]1CN(c2ccc([C@H]3CC[S@@+]([O-])CC3)c(F)c2)C(=O)O1 [Example 7, (S)-cis-N-[[3-[3-Fluoro-4-(tetrahydro-1-oxido-2H-thiopyran-4-yl)phenyl]-2-oxo-5-oxazolidinyl]methyl]ethanethioamide] |  | < 0.125 | 1 (≈ 2.6 µM) | 4 (≈ 10.4 µM) | 0.25 (≈ 0.65 µM) | 0.5 (≈ 1.3 µM) | 0.25 (≈ 0.65 µM) |  | 0.5 (≈ 1.3 µM) |  |  |  |  |  |  |  |  | 0.5 (≈ 1.3 µM) |
| CC(=S)NC[C@H]1CN(c2ccc(N3CCCSCC3)cc2)C(=O)O1 [Example 534, (5S)-N-[[3-[4-(Tetrahydro-1,4-thiazepin-4(5H)-yl)phenyl]-2-oxo-5-oxazolidinyl]methyl]thioacetamide] | 129 to 131 °C |  |  |  |  |  |  |  |  |  |  |  |  |  |  |  |  |  |

Next, values leading:

| melting point | MIC [1] [µg/mL] | MIC [2] [µg/mL] | MIC [3] [µg/mL] | MIC [4] [µg/mL] | MIC [5] [µg/mL] | MIC (S. pyogenes (SPYO 152)) [µg/mL] | MIC (E. Faecium (EFAE 12712); [6]) [µg/mL] | MIC (S. aureus (SAUR 9213)) [µg/mL] | SPNE 9912 MIC [1] [µg/mL] | MCAT 30610 MIC [2] [µg/mL] | HINF 30063 MIC [3] [µg/mL] | SEPI 30593 MIC [4] [µg/mL] | EFAE 9217 MIC [5] [µg/mL] | SPYO 152 MIC (S. pyogenes (SPYO 152)) [µg/mL] | EFAE 12712 MIC (E. Faecium (EFAE 12712); [6]) [µg/mL] | SAUR 9213 MIC (S. aureus (SAUR 9213)) [µg/mL] | MIC (E. Faecium (EFAE 12712)) [µg/mL] | Structure (SMILES) |
| --- | --- | --- | --- | --- | --- | --- | --- | --- | --- | --- | --- | --- | --- | --- | --- | --- | --- | --- |
| 155 to 156 °C | 0.25 (≈ 0.677 µM) | 2 (≈ 5.41 µM) | 16 (≈ 43.3 µM) | 0.5 (≈ 1.35 µM) | 1 (≈ 2.71 µM) | 0.5 (≈ 1.35 µM) | 1 (≈ 2.71 µM) | 1 (≈ 2.71 µM) |  |  |  |  |  |  |  |  |  | CC(=S)NC[C@H]1CN(c2ccc(N3CCSCC3)c(F)c2)C(=O)O1 [Example 26, (S)-N-[[3-[3-Fluoro-4-(4-thiomorpholinyl)phenyl]-2-oxo-5-oxazolidinyl]methyl]thio-acetamide] |
| 209 to 210 °C | < 0.125 | 1 (≈ 2.43 µM) | 4 (≈ 9.72 µM) | 1 (≈ 2.43 µM) | 1 (≈ 2.43 µM) | 0.25 (≈ 0.608 µM) | 1 (≈ 2.43 µM) | 2 (≈ 4.86 µM) |  |  |  |  |  |  |  |  |  | NC(=S)NC[C@H]1CN(c2ccc(N3CCN(C(=O)CO)CC3)c(F)c2)C(=O)O1 [Example 31, (S)-N-[[3-[3-Fluoro-4-[4-(hydroxyacetyl)-1-piperazinyl]phenyl]-2oxo-5-oxazolidinyl]-methyl]thiourea] |
| 175 to 176 °C (dec.) | < 0.125 | 2 (≈ 5.72 µM) | 4 (≈ 11.4 µM) | 0.25 (≈ 0.715 µM) | 0.5 (≈ 1.43 µM) | 0.25 (≈ 0.715 µM) | 0.5 (≈ 1.43 µM) | 1 (≈ 2.86 µM) |  |  |  |  |  |  |  |  |  | CC(=S)NC[C@H]1CN(c2ccc3c(c2)CCN3C(=O)CO)C(=O)O1 [Example 24, (S)-N-[[3-[1-(Hydroxyacetyl)-5-indolinyl]-2-oxo-5-oxazolidinyl]methyl]thioacetamide] |
| 208 to 209 °C |  |  |  |  |  |  |  |  |  |  |  |  |  |  |  |  |  | COC(=S)NC[C@H]1CN(c2ccc(N3CC[S+]([O-])CC3)c(F)c2)C(=O)O1 [Example 100, (S)-N-[[3-[3-Fluoro-4-(4-thiomorpholinyl)phenyl]-2-oxo-5-oxazolidinyl]methyl]-O-methylthiocarbamate, thiomorpholine S-oxide] |
|  |  |  |  |  |  |  |  |  | 0.25 | 1 | 2 | 0.25 | 0.5 | 0.25 | 0.5 | 0.5 |  | CC(=S)NC[C@H]1CN(c2ccc(N3CCS(=O)(=O)CC3)c(F)c2)C(=O)O1 [Example 28, (S)-N-[[3-[3-Fluoro-4-(4-thiomorpholinyl)phenyl]-2-oxo-5-oxazolidinyl]methyl]thio-acetamide, thiomorpholine S, S-dioxide] |
|  |  |  |  |  |  |  |  |  | 16 | 32 | 64 | 16 | 32 | 16 | 32 | 32 |  | N#CCC(=S)NC[C@H]1CN(c2ccc(N3CCOCC3)c(F)c2)C(=O)O1 [Example 19, (S)-N-[[3-[3-Fluoro-4-(4-morpholinyl)phenyl]-2-oxo-5-10 oxazolidinyl]methyl]-α-eyanothioacetamnide] |
|  | 4 (≈ 10.3 µM) | 64 (≈ 165 µM) | > 64 | 16 (≈ 41.3 µM) | 32 (≈ 82.5 µM) | 8 (≈ 20.6 µM) | 32 (≈ 82.5 µM) | 32 (≈ 82.5 µM) |  |  |  |  |  |  |  |  |  | O=C1O[C@@H](CNC(=S)CCl)CN1c1ccc(N2CCOCC2)c(F)c1 [Example 15, (S)-N-[[3-[3-Fluoro-4-(4-morpholinyl)phenyl]-2-oxo-5-oxrazolidinyl]methyl]-2-chlorotlioacetamide] |
|  |  |  |  |  |  |  |  |  | 0.5 | 4 | >16 | 1 | 2 | 1 | 2 | 2 |  | CSC(=S)NC[C@H]1CN(c2ccc(N3CCOCC3)c(F)c2)C(=O)O1 [Example 34] |
